In patent publication US8895752B2, “Alkylsulfonyl-substituted thiazolide compounds” (priority 2007, dated 2014):
Several values for one entry are separate records, joined by “and”; a condition that tells them apart may be missing. Identical values can stand only once. Like-named read-outs stand apart in the source and are kept apart here.

Assays:
Wild-type HBV = assay: 5-day transient transfection assay in Huh7 cells, intracellular HBV RI by Southern blot; assay type: cell-based, Hepatitis B Virus; settings: Wild-type, Huh7 transient transfection; for EC50: read-out: EC50
2.2.15 cells = assay: Cytotoxicity by neutral red dye uptake in 2.2.15 cells; settings: confluent 2.2.15 cultures, nine daily doses, neutral red uptake
Protocol: (§1) HBV antiviral assays were conducted as previous described (Korba and Gerin, 1992).
(§2) EC50, EC90 and CC50 values (±standard deviations [S.D.]) were calculated by linear regression analysis using data combined from all treated cultures (Korba and Gerin, 1992; Okuse et al., 2005). […] Selectivity index (S.I.) was calculated as CC50/EC90 for HBV assays and CC50/EC50 for HCV assays. EC90 values were used for calculation of the S.I. in HBV assays since at least a […] depression of HBV DNA levels is typically required to achieve statistical significance in this assay system (Korba and Gerin, 1992). For combination treatments, EC50, EC90, CC50 and S.I. are presented for the first compound listed. The molar ratio of the compounds in each combination is also indicated.

HBV Mutant N236T = assay: 5-day transient transfection assay in Huh7 cells, intracellular HBV RI by Southern blot; assay type: cell-based, Hepatitis B Virus
Protocol: (§3) Activity against LMV-resistant (Allen et al., 1998) and ADV-resistant (Angus et al., 2003) HBV mutants was performed in a 5-day assay using a transient transfection method as previously described (Iyer et al., 2004). Antiviral activity was determined by quantitative Southern blot hybridization of intracellular HBV DNA replication intermediates (HBV RI).

HBV Mutant M204V = assay: as above; assay type: cell-based, Hepatitis B Virus
Protocol: as §3

HBV Mutant M204I = assay: as above; assay type: cell-based, Hepatitis B Virus
Protocol: as §3

HBV Mutant L180M/M204V = assay: as above; assay type: cell-based, Hepatitis B Virus
Protocol: as §3

HBV Mutant L180M = assay: as above; assay type: cell-based, Hepatitis B Virus
Protocol: as §3

HBV = HBV antiviral assay in confluent 2.2.15 cell cultures (HBV DNA, quantitative blot hybridization); assay type: cell-based, Hepatitis B Virus
Protocol: EC50, EC90 and CC50 values (±standard deviations [S.D.]) were calculated by linear regression analysis using data combined from all treated cultures (Korba and Gerin, 1992; Okuse et al., 2005). […] Selectivity index (S.I.) was calculated as CC50/EC90 for HBV assays and CC50/EC50 for HCV assays. EC90 values were used for calculation of the S.I. in HBV assays since at least a 3-fold depression of HBV DNA levels is typically required to achieve statistical significance in this assay system (Korba and Gerin, 1992).

[1] = Primary HCV replicon cell assay, cytotoxicity; settings: human, HCV replicon cells (primary assay), CC50, primary assay
Protocol: (§4) Antiviral activity of test compounds was assessed in a 3-day assay using the stably-expressing HCV replicon cell line, AVA5 (sub-genomic CON1, genotype 1b) (Blight et al., 2000) maintained as sub-confluent cultures on 96-well plates as previously described (Okuse et al., 2005). Antiviral activity was determined by blot hybridization analysis of intracellular HCV RNA (normalized to the level of cellular B-actin RNA in each culture sample) and cytotoxicity was assessed by neutral red dye uptake after 3 days of treatment. Additional studies were performed using Huh7 cells containing another HCV replicon, H/FL-Neo, a genotype 1a full length construct (Blight et al., 2003). For studies involving human serum, standard culture medium (which contains 10% fetal bovine serum) and assay conditions were maintained.
as §2

HCV replicon = assay: Primary HCV replicon cell assay; assay type: cell-based, Hepatitis C Virus
Protocol: as §4, §2

[2] = Cytotoxicity by neutral red dye uptake in 2.2.15 cells; settings: human
Protocol: as §1, §2

[3] = test system: HCV replicon, sub-genomic CON1, genotype 1b; assay: 3-day HCV replicon assay in AVA5 cells (intracellular HCV RNA, blot hybridization); assay type: cell-based, Hepatitis C Virus; settings: Genotype 1b replicon; for EC50 / EC90: 3 days, first compound listed for combinations
Protocol: as §4, §2

AVA5 cells = assay: Cytotoxicity by neutral red dye uptake in AVA5 cells; assay type: cell-based; settings: Genotype 1b replicon, 3 days
[4] = Cytotoxicity by neutral red dye uptake in Huh7 cells containing H/FL-Neo; assay type: cell-based; settings: human; Genotype 1a replicon
HCV replication = assay: HCV replicon assay, 6 days total duration, NTZ monotherapy pre-treatment and combination therapy; assay type: cell-based; settings: Hepatitis C virus, 144 h, first named drug for combinations
Protocol: as §4, with “Antiviral activity of test compounds was assessed in a 3-day assay using the stably-expressing” left out
as §2

[5] = test system: HCV replicon H/FL-Neo, genotype 1a full length; assay: HCV replicon assay in Huh7 cells containing H/FL-Neo; assay type: cell-based, Hepatitis C Virus; settings: Genotype 1a replicon
Protocol: as §4, §2

[6] = Cytotoxicity by neutral red dye uptake in AVA5 cells; assay type: cell-based; settings: human, AVA5 cells (HCV replicon, sub-genomic CON1), Genotype 1b replicon
[7] = 2.2.15 cells, nine daily doses, read-out: Extracellular virion DNA EC50
[8] = 2.2.15 cells, nine daily doses, read-out: Extracellular virion DNA EC90
[9] = 2.2.15 cells, nine daily doses, read-out: Intracellular HBV RI EC50
[10] = 2.2.15 cells, nine daily doses, read-out: Intracellular HBV RI EC90

CC(C)(C)C(=O)OCOP(=O)(COCCn1cnc2c(N)ncnc21)OCOC(=O)C(C)(C)C [ADV, adefovir dipovoxil]
EC90 (Wild-type HBV): 7 ± 0.8 µM | EC50 (Wild-type HBV): 2 ± 0.2 µM | CC50 (2.2.15 cells): > 300 µM | EC50 (HBV Mutant N236T; N236T, read-out: EC50): 11 ± 1.3 µM | EC90 (HBV Mutant N236T; N236T, read-out: EC90): 32 ± 3.6 µM | EC50 (HBV Mutant M204V; M204V, read-out: EC50): 1.5 ± 0.2 µM | EC90 (HBV Mutant M204V; M204V, read-out: EC90): 7.2 ± 0.8 µM | EC50 (HBV Mutant M204I; M204I, read-out: EC50): 2.5 ± 0.3 µM | EC90 (HBV Mutant M204I; M204I, read-out: EC90): 8.5 ± 1 µM | EC50 (HBV Mutant L180M/M204V; L180M/M204V, read-out: EC50): 2.5 ± 0.3 µM | EC90 (HBV Mutant L180M/M204V; L180M/M204V, read-out: EC90): 7.6 ± 0.8 µM | EC50 (HBV Mutant L180M; L180M, read-out: EC50): 2.6 ± 0.3 µM | EC90 (HBV Mutant L180M; L180M, read-out: EC90): 7.3 ± 0.8 µM | EC50 (HBV; [7]): 1 ± 0.2 µM | EC90 (HBV; [8]): 3 ± 0.3 µM

CS(=O)(=O)Oc1ccccc1C(=O)Nc1nccs1 [Compound 11, 2-(thiazol-2-ylcarbamoyl)phenyl methanesulfonate]
CC50 at 3 days [1]: > 100 µM | melting point: 185.5 to 187.8 °C | EC50 (HCV replicon; Hepatitis C virus): > 10 µM | EC90 (HCV replicon; Hepatitis C virus): > 10 µM

CCCCSc1cnc(NC(=O)c2ccccc2OC(C)=O)s1
melting point: 100 to 101 °C

CSc1cnc(NC(=O)c2ccc(OC(C)=O)cc2)s1
melting point: 193.3 to 195.5 °C and 193.5 to 195.5 °C

Nc1ccn([C@@H]2CS[C@H](CO)O2)c(=O)n1 [LMV, lamivudine]
EC90 (Wild-type HBV; Hepatitis B virus, Huh-7): 0.9 ± 0.2 µM | EC50 (Wild-type HBV; Hepatitis B virus, Huh-7): 0.2 ± 0.1 µM | CC50 at 9 days [2]: 2350 ± 88 µM | EC50 (HBV Mutant N236T; Hepatitis B virus, Huh-7): 0.3 ± 0.1 µM | EC90 (HBV Mutant N236T; Hepatitis B virus, Huh-7): 1.2 ± 0.2 µM | EC50 (HBV Mutant M204V; Hepatitis B virus, Huh-7): > 100 µM | EC90 (HBV Mutant M204V; Hepatitis B virus, Huh-7): > 100 µM | EC50 (HBV Mutant M204I; Hepatitis B virus, Huh-7): > 100 µM | EC90 (HBV Mutant M204I; Hepatitis B virus, Huh-7): > 100 µM | EC50 (HBV Mutant L180M/M204V; Hepatitis B virus, Huh-7): > 100 µM | EC90 (HBV Mutant L180M/M204V; Hepatitis B virus, Huh-7): > 100 µM | EC50 (HBV Mutant L180M; Hepatitis B virus, Huh-7): 16 ± 2 µM | EC90 (HBV Mutant L180M; Hepatitis B virus, Huh-7): 46 ± 5.6 µM | Selectivity Index Virion (HBV; CC50/EC90, extracellular virion DNA): 15646 | Selectivity Index RI (HBV; CC50/EC90, intracellular HBV RI): 4267 | EC50 (HBV; Hepatitis B virus, read-out: Intracellular HBV RI EC50): 0.16 ± 0.03 µM | EC50 (HBV; Hepatitis B virus, 2.2.15 cells, Table 3 experiment, read-out: HBV R.I. EC50): 0.16 ± 0.02 µM | EC90 (HBV; Hepatitis B virus, 2.2.15 cells, Table 3 experiment, read-out: HBV R.I. EC90): 0.56 ± 0.07 µM | EC50 (HBV; Hepatitis B virus, 2.2.15 cells, Table 3 experiment, read-out: Virion production EC50): 0.05 ± 0.01 µM | EC90 (HBV; Hepatitis B virus, 2.2.15 cells, Table 3 experiment, read-out: Virion production EC90): 0.15 ± 0.02 µM | EC50 (HBV; Hepatitis B virus, 2.2.15 cells, nine daily doses, read-out: Extracellular virion DNA EC50): 0.05 ± 0.01 µM | EC90 (HBV; Hepatitis B virus, 2.2.15 cells, nine daily doses, read-out: Extracellular virion DNA EC90): 0.15 ± 0.02 µM | EC90 (HBV; Hepatitis B virus, 2.2.15 cells, nine daily doses, read-out: Intracellular HBV RI EC90): 0.55 ± 0.06 µM

O=C(Nc1ncc(Cl)s1)c1ccccc1O [RM4848]
EC50 [3]: > 20 µM | EC90 [3]: > 20 µM | CC50 (2.2.15 cells): > 100 µM | CC50 (AVA5 cells): 15 ± 0.1 µM | EC50 (HBV; [7]): 0.37 ± 0.07 µM | EC90 (HBV; [8]): 1.7 ± 0.2 µM

Cc1ccc(C(=O)Nc2ncc(Cl)s2)c(O)c1 [RM4852]
EC50 [3]: > 20 µM | EC90 [3]: > 20 µM | CC50 (2.2.15 cells): > 100 µM | CC50 (AVA5 cells): 6.7 ± 0.4 µM | EC50 (HBV; [7]): 1 ± 0.1 µM | EC90 (HBV; [8]): 3.3 ± 0.3 µM | EC50 (HBV; [9]): 2.7 ± 0.3 µM | EC90 (HBV; [10]): 6.3 ± 0.7 µM

CC(=O)Oc1ccccc1C(=O)Nc1nc(S(C)(=O)=O)cs1 [Compound 62, 2-{[4-(methylsulfonyl)-1,3-thiazol-2-yl]carbamoyl}phenyl acetate]
CC50 at 3 days [1]: > 100 µM | EC50 (HCV replicon; Hepatitis C virus): > 10 µM | EC90 (HCV replicon; Hepatitis C virus): > 10 µM

CSc1cnc(NC(=O)c2ccccc2O)s1
melting point: 225 to 226 °C

C[C@@]1(O)[C@H](O)[C@@H](CO)O[C@H]1n1ccc(N)nc1=O [2′CmeC, 2′-C-methyl cytidine]
Selectivity Index ([3]; CC50/EC50): >188 | EC50 ([3]; Hepatitis C virus, Ava5, 72 h): 1.6 ± 0.2 µM | EC90 ([3]; Hepatitis C virus, Ava5, 72 h): 8.3 ± 0.7 µM | CC50 at 3 days [4]: > 300 µM | EC50 (HCV replication): 1.3 ± 0.2 µM | EC90 (HCV replication): 5.8 ± 0.9 µM | Selectivity Index ([5]; CC50/EC50): >167 | EC50 ([5]; Hepatitis C virus, Huh-7): 1.8 ± 0.2 µM | EC90 ([5]; Hepatitis C virus, Huh-7): 8.1 ± 0.8 µM | CC50 at 3 days [6]: > 300 µM

CCCCS(=O)(=O)c1cnc(NC(=O)c2ccccc2O)s1
melting point: 235 to 236 °C

CCCCSc1cnc(NC(=O)c2ccccc2O)s1
melting point: 180 to 181 °C

CSc1cnc(NC(=O)c2cccc(OC(C)=O)c2)s1
melting point: 135.2 to 136.2 °C

CC(=O)Oc1ccccc1C(=O)Nc1ncc(S(C)(=O)=O)s1 [Compound 7, 2-(5-(methylsulfonyl)thiazol-2-ylcarbamoyl)phenyl acetate]
CC50 at 3 days [1]: 20 µM | EC50 (HCV replicon; Hepatitis C virus): > 10 µM | EC90 (HCV replicon; Hepatitis C virus): > 10 µM

CS(=O)(=O)c1csc(NC(=O)c2ccccc2O)n1 [Compound 60, 2-hydroxy-N-(4-(methylsulfonyl)thiazol-2-yl)benzamide]
EC90 (HCV replicon): 0.654 µM | EC90 (HCV replicon; Hepatitis C virus): 0.585 µM

Cc1cccc(C(=O)Nc2ncc(Cl)s2)c1O [RM4851]
EC50 [3]: > 20 µM | EC90 [3]: > 20 µM | CC50 (2.2.15 cells): > 100 µM | CC50 (AVA5 cells): 5.6 ± 0.3 µM | EC50 (HBV; [7]): > 10 µM | EC90 (HBV; [8]): > 10 µM | EC50 (HBV; [9]): > 10 µM | EC90 (HBV; [10]): > 10 µM
